Data taken from PubChem BioAssay AID1963856 (Molecular Pharmacology Branch, DTP, NCI, 2024).

System: LG0567-F671-PDC KRAS tumor spheroid viability
Assay: Anticancer human tumor LG0567-F671-PDC patient-derived lung adenocarcinoma cell line growth inhibition [KRAS2]
Details: spheroids with HUVEC and MSC; for IC50: curve of first compound; for viability, T/C: stronger effect = lower value
In short: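 KRAS-mutant tumor cells were grown as spheroids with HUVEC endothelial cells and human MSCs as stroma. Targeted agents were tested alone and with KRAS pathway inhibitors. Doses started at or near clinical Cmax, or 10 microM, descending half-log.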

[1] = second compound 0.1 µM, first compound 0.01 µM
[2] = second compound 0.1 µM, first compound 0.0316 µM
[3] = second compound 0.1 µM, first compound 0.1 µM
[4] = second compound 0.1 µM, first compound 0.316 µM
[5] = second compound 0.1 µM, first compound 1 µM
[6] = second compound 0.1 µM, first compound 3.16 µM
[7] = second compound 0.316 µM, first compound 0.01 µM
[8] = second compound 0.316 µM, first compound 0.0316 µM
[9] = second compound 0.316 µM, first compound 0.1 µM
[10] = second compound 0.316 µM, first compound 0.316 µM
[11] = second compound 0.316 µM, first compound 1 µM
[12] = second compound 0.316 µM, first compound 3.16 µM
[13] = second compound 1 µM, first compound 0.01 µM
[14] = second compound 1 µM, first compound 0.0316 µM
[15] = second compound 1 µM, first compound 0.1 µM
[16] = second compound 1 µM, first compound 0.316 µM
[17] = second compound 1 µM, first compound 1 µM
[18] = second compound 1 µM, first compound 3.16 µM
[19] = second compound 3.16 µM, first compound 0.01 µM
[20] = second compound 3.16 µM, first compound 0.0316 µM
[21] = second compound 3.16 µM, first compound 0.1 µM
[22] = second compound 3.16 µM, first compound 0.316 µM
[23] = second compound 3.16 µM, first compound 1 µM
[24] = second compound 3.16 µM, first compound 3.16 µM
[25] = second compound 10 µM, first compound 0.0316 µM
[26] = second compound 10 µM, first compound 0.1 µM
[27] = second compound 10 µM, first compound 0.316 µM
[28] = second compound 10 µM, first compound 1 µM
[29] = second compound 10 µM, first compound 3.16 µM
[30] = second compound 0.1 µM, first compound 10 µM
[31] = second compound 0.316 µM, first compound 10 µM
[32] = second compound 1 µM, first compound 10 µM
[33] = second compound 3.16 µM, first compound 10 µM
[34] = second compound 10 µM, first compound 10 µM
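Also: drug exposure lasted seven days after spheroids formed for three days.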
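For viability, T/C in this document: 100% = DMSO vehicle control viability.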

SMILES | IC50 (second compound 0.1 µM) | IC50 (second compound 0.316 µM) | IC50 (second compound 1 µM) | IC50 (second compound 3.16 µM) | viability, T/C [2] | viability, T/C [3] | viability, T/C [4] | viability, T/C [5] | viability, T/C [6] | viability, T/C [8] | viability, T/C [9] | viability, T/C [10] | viability, T/C [11] | viability, T/C [12] | viability, T/C [14] | viability, T/C [15] | viability, T/C [16] | viability, T/C [17] | viability, T/C [18] | viability, T/C [20] | further results
CC1COCCN1c1cc(-c2ccnn2C)c2ccnc(-c3ccn[nH]3)c2n1 (stereo not given) + C=CC(=O)N1CCN(c2nc(=O)n(-c3c(C)ccnc3C(C)C)c3nc(-c4c(O)cccc4F)c(F)cc23)C(C)C1 | < 10 nM | < 10 nM | < 10 nM | < 10 nM | 18.8% | 16% | 14.2% | 11.2% | 10.8% | 18.6% | 14.2% | 11% | 9.77% | 10.6% | 19.3% | 14.3% | 11.3% | 9.8% | 12.5% | 14.9% | IC50 (second compound 10 µM): < 10 nM; viability, T/C [1]: 23.9%; viability, T/C [7]: 21.8%; viability, T/C [13]: 21.3%; viability, T/C [19]: 15.7%; viability, T/C [21]: 12.8%; viability, T/C [22]: 11.3%; viability, T/C [23]: 9.54%; viability, T/C [24]: 10.3%; viability, T/C (second compound 10 µM, first compound 0.01 µM): 19.8%; viability, T/C [25]: 17.4%; viability, T/C [26]: 15.5%; viability, T/C [27]: 14.9%; viability, T/C [28]: 12.2%; viability, T/C [29]: 12.8%
CC1OCC2(CCN(c3cnc(Sc4ccnc(N)c4Cl)c(N)n3)CC2)C1N (stereo not given) + C=CC(=O)N1CCN(c2nc(=O)n(-c3c(C)ccnc3C(C)C)c3nc(-c4c(O)cccc4F)c(F)cc23)C(C)C1 | < 31.6 nM | < 31.6 nM | < 31.6 nM | < 31.6 nM | 17.5% | 13.5% | 8.87% | 5.62% | 3.47% | 17.9% | 13.2% | 8.99% | 4.26% | 2.66% | 16.2% | 15.9% | 10.2% | 4.27% | 5.62% | 16.6% | IC50 (second compound 10 µM): < 31.6 nM; viability, T/C [30]: 2.54%; viability, T/C [31]: 2.19%; viability, T/C [32]: 2.9%; viability, T/C [21]: 11.6%; viability, T/C [22]: 7.63%; viability, T/C [23]: 4%; viability, T/C [24]: 1.9%; viability, T/C [33]: 3.71%; viability, T/C [25]: 17.6%; viability, T/C [26]: 13.8%; viability, T/C [27]: 8.61%; viability, T/C [28]: 4.3%; viability, T/C [29]: 3.58%; viability, T/C [34]: 3.08%
CCNC(=O)CC1N=C(c2ccc(Cl)cc2)c2cc(OC)ccc2-n2c(C)nnc21 (stereo not given) + C=CC(=O)N1CCN(c2nc(=O)n(-c3c(C)ccnc3C(C)C)c3nc(-c4c(O)cccc4F)c(F)cc23)C(C)C1 | < 31.6 nM | < 31.6 nM | < 31.6 nM | < 31.6 nM | 35% | 33% | 24.3% | 18.5% | 15.2% | 28.9% | 34.7% | 25.1% | 18.7% | 15.3% | 32.7% | 31.1% | 22% | 16% | 15.8% | 25.9% | IC50 (second compound 10 µM): < 31.6 nM; viability, T/C [30]: 12.9%; viability, T/C [31]: 13.2%; viability, T/C [32]: 12.4%; viability, T/C [21]: 30.1%; viability, T/C [22]: 20.9%; viability, T/C [23]: 16.3%; viability, T/C [24]: 12.8%; viability, T/C [33]: 10.2%; viability, T/C [25]: 24.3%; viability, T/C [26]: 26.2%; viability, T/C [27]: 17%; viability, T/C [28]: 10.3%; viability, T/C [29]: 9.13%; viability, T/C [34]: 9.1%
Cn1nccc1Nc1nccc(-c2cc3c(s2)C(C)(C)N(CCN2CCOCC2)C3=O)n1 + C=CC(=O)N1CCN(c2nc(=O)n(-c3c(C)ccnc3C(C)C)c3nc(-c4c(O)cccc4F)c(F)cc23)C(C)C1 | < 31.6 nM | < 31.6 nM | < 31.6 nM | < 31.6 nM | 21.2% | 23.1% | 19.2% | 20.8% | 14.1% | 22.2% | 19.8% | 19.9% | 17.8% | 15.6% | 23.1% | 21.8% | 21% | 20.9% | 15% | 22.2% | IC50 (second compound 10 µM): < 31.6 nM; viability, T/C [30]: 16.3%; viability, T/C [31]: 17.2%; viability, T/C [32]: 20.8%; viability, T/C [21]: 18.1%; viability, T/C [22]: 20.3%; viability, T/C [23]: 12.2%; viability, T/C [24]: 14%; viability, T/C [33]: 20.9%; viability, T/C [25]: 20.5%; viability, T/C [26]: 19.2%; viability, T/C [27]: 14.5%; viability, T/C [28]: 12.2%; viability, T/C [29]: 15.2%; viability, T/C [34]: 26.8%
CC(=O)OC12COC1CC(O)C1(C)C(=O)C(O)C3=C(C)C(OC(=O)C(O)C(NC(=O)OC(C)(C)C)c4ccccc4)CC(O)(C(OC(=O)c4ccccc4)C21)C3(C)C (stereo not given) + C=CC(=O)N1CCN(c2nc(OCC3CCCN3C)nc3c2CCN(c2cccc4cccc(C)c24)C3)CC1CC#N | < 10 nM | < 10 nM | < 10 nM | < 10 nM | 13.2% | 16.1% | 16.5% | 19.4% | 15.8% | 13.9% | 15.7% | 13.8% | 16.9% | 14.7% | 15.4% | 15.9% | 15.3% | 16.8% | 14.4% | 37.1% | IC50 (second compound 0.0316 µM): < 10 nM; viability, T/C (second compound 0.0316 µM, first compound 0.01 µM): 18.9%; viability, T/C (second compound 0.0316 µM, first compound 0.0316 µM): 16.2%; viability, T/C (second compound 0.0316 µM, first compound 0.1 µM): 18.9%; viability, T/C (second compound 0.0316 µM, first compound 0.316 µM): 21.9%; viability, T/C (second compound 0.0316 µM, first compound 1 µM): 22.9%; viability, T/C (second compound 0.0316 µM, first compound 3.16 µM): 19.9%; viability, T/C [1]: 14.5%; viability, T/C [7]: 15.8%; viability, T/C [13]: 16.6%; viability, T/C [19]: 40.1%; viability, T/C [21]: 25.7%; viability, T/C [22]: 36.4%; viability, T/C [23]: 33.6%; viability, T/C [24]: 36.6%
